Source: patent publication US10308643B2, “Heterocyclic compound” (Takeda Pharmaceutical Company Limited, priority 2015, dated 2019)

Legend:
Assay type in all cases: biochemical
[1] = biological target: T1, HDAC9 enzyme (Homo sapiens, UniProt Q9UKV0); experiment: HDAC9 Enzyme Inhibitory Assay (HDAC-Glo class IIa); settings: 1 μM test compound, wells without enzyme = 100% inhibition; for inhibition at 1 µM: read-out: HDAC9 inhibitory rate (%) (1 μM)
T1 construct: transducing full length HDAC9 gene into Sf-9 insect cells; made in house; host or cells: Sf-9 insect cells
How it was run: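 Full-length human HDAC9 from Sf-9 cells, Ni-NTA purified, preincubated with compound for 60 min at room temperature in Tris-HCl pH 7.5 buffer (MgCl2, KCl, NaCl, glutathione, Tween-20). HDAC-Glo class IIa substrate-developer added; luminescence read after 20 min, with no-enzyme wells defining 100% inhibition.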

[2] = biological target: T2, HDAC1 enzyme (Homo sapiens, UniProt Q13547); experiment: HDAC1/6 Enzyme Inhibitory Assay (HDAC-Glo I/II Assay kit), HDAC1; settings: 1 μM test compound, wells without enzyme = 100% inhibition; for inhibition at 1 µM: read-out: HDAC1 inhibitory rate (%) (1 μM)
T2 construct: transducing full length HDAC1 and HDAC6 genes into Sf-9 insect cells; GST; purchased SignalChem; host or cells: Sf-9 insect cells
How it was run: (§1)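 Luminescent HDAC-Glo I/II read-out was taken 20 min after adding substrate-developer, at room temperature. Before this, compound and enzyme were held together for 60 min in 24 mM Tris-HCl pH 7.5 with 0.6 mM glutathione and 0.01% Tween-20. The enzyme was full-length HDAC1 or HDAC6 from Sf-9 cells, GST-purified. Wells without enzyme defined 100% inhibition.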

[3] = biological target: T3, HDAC6 enzyme (Homo sapiens, UniProt Q9UBN7); experiment: HDAC1/6 Enzyme Inhibitory Assay (HDAC-Glo I/II Assay kit), HDAC6; settings: 1 μM test compound, wells without enzyme = 100% inhibition; for inhibition at 1 µM: read-out: HDAC6 inhibitory rate (%) (1 μM)
T3 construct: transducing full length HDAC1 and HDAC6 genes into Sf-9 insect cells; GST; purchased SignalChem; host or cells: Sf-9 insect cells
T3 sequence (Q9UBN7 1-1215): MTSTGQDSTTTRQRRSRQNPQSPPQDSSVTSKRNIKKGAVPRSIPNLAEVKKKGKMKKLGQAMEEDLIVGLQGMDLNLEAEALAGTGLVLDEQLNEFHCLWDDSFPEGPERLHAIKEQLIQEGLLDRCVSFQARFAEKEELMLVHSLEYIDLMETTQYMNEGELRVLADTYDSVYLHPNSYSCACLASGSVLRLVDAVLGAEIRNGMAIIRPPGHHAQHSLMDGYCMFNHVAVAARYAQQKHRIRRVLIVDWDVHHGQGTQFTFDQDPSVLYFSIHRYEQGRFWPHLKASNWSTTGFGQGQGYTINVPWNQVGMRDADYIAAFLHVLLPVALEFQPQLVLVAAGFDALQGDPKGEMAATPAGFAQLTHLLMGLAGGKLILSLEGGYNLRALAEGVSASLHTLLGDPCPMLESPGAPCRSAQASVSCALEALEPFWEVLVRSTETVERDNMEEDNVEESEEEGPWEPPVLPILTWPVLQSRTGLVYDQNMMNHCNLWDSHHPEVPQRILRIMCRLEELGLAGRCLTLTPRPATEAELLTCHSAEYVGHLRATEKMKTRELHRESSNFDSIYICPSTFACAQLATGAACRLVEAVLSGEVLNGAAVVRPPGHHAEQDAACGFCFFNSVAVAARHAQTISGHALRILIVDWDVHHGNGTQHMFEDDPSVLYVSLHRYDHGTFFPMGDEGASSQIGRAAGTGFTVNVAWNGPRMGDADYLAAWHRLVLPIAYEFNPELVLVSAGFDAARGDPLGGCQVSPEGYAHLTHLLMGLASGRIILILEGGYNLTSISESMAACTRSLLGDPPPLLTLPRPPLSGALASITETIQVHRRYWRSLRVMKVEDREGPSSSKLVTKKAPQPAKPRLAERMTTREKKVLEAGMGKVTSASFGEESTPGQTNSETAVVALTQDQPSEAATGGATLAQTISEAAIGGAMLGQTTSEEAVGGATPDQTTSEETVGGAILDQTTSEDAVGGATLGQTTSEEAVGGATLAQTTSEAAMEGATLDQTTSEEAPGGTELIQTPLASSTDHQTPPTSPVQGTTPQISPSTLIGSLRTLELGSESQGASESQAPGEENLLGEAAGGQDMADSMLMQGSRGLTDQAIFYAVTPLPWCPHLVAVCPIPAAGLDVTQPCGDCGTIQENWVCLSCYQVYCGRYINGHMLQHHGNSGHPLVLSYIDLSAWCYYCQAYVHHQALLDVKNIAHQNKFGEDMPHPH
How it was run: as §1

T2 sequence (Q13547 whole entry): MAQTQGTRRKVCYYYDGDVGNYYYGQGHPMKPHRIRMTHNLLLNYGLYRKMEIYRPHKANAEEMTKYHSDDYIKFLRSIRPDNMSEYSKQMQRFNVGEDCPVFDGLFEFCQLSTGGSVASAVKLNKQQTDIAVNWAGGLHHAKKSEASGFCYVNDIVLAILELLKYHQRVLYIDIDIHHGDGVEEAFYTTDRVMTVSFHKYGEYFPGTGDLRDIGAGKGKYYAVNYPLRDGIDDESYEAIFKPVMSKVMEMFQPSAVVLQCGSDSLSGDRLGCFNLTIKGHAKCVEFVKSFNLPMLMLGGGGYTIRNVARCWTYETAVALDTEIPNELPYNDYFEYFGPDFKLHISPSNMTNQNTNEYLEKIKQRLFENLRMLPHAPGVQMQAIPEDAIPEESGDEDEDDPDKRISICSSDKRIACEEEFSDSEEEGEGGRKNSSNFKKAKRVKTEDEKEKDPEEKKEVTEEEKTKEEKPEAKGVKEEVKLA
T1 sequence (Q9UKV0 whole entry, species assumed): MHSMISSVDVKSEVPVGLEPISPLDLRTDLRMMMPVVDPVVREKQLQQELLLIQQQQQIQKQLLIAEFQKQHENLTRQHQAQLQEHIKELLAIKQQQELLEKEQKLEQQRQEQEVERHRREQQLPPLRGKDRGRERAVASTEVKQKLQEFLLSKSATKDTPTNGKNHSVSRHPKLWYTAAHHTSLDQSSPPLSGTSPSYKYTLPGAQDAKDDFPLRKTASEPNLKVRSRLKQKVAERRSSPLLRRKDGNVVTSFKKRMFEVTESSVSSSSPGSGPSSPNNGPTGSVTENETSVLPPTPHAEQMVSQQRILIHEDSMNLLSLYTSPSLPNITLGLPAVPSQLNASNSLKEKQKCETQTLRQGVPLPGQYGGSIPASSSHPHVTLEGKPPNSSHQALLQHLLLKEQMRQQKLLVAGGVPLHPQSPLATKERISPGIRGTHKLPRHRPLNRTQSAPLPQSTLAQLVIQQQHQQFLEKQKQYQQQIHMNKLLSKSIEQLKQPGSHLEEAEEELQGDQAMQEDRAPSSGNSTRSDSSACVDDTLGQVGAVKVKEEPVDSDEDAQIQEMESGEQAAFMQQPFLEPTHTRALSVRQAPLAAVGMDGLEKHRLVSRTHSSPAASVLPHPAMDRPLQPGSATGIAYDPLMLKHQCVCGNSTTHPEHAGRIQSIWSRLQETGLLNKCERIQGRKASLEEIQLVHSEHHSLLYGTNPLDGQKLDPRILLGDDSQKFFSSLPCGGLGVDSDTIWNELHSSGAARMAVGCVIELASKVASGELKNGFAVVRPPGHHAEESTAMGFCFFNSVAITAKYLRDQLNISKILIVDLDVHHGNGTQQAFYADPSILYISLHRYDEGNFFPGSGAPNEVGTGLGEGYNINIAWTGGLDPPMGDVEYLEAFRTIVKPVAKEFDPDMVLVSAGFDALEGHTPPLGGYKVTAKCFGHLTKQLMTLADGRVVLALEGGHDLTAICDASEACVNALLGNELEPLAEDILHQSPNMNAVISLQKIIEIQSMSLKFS

O=C(CN1CCCC1=O)N[C@@H]1CCCC[C@H]1N1Cc2ccc(-c3noc(C(F)(F)F)n3)cc2C1=O [Example 121, 2-(2-oxopyrrolidin-1-yl)-N-((1R,2R)-2-(1-oxo-6-(5-(trifluoromethyl)-1,2,4-oxadiazol-3-yl)-1,3-dihydro-2H-isoindol-2-yl)cyclohexyl)acetamide]
inhibition at 1 µM [1]: 40%
inhibition at 1 µM [2]: 3%
inhibition at 1 µM [3]: 89%

N#CC1(C(=O)N[C@@H]2CCCC[C@H]2N2Cc3ccc(-c4noc(C(F)(F)F)n4)cc3C2=O)CC1 [Example 122, 1-cyano-N-((1R,2R)-2-(1-oxo-6-(5-(trifluoromethyl)-1,2,4-oxadiazol-3-yl)-1,3-dihydro-2H-isoindol-2-yl)cyclohexyl) cyclopropanecarboxamide]
inhibition at 1 µM [1]: 67%
inhibition at 1 µM [2]: 6%
inhibition at 1 µM [3]: 97%

CN1CCC(C(=O)N[C@@H]2CCCC[C@H]2N2Cc3ccc(-c4noc(C(F)(F)F)n4)cc3C2=O)CC1 [Example 123, 1-methyl-N-((1R,2R)-2-(1-oxo-6-(5-(trifluoromethyl)-1,2,4-oxadiazol-3-yl)-1,3-dihydro-2H-isoindol-2-yl)cyclohexyl)piperidine-4-carboxamide]
inhibition at 1 µM [1]: 5%
inhibition at 1 µM [2]: -4%
inhibition at 1 µM [3]: 56%

CN1CCCCC1C(=O)N[C@@H]1CCCC[C@H]1N1Cc2ccc(-c3noc(C(F)(F)F)n3)cc2C1=O (stereo partly drawn) [Example 124, 1-methyl-N-((1R,2R)-2-(1-oxo-6-(5-(trifluoromethyl)-1,2,4-oxadiazol-3-yl)-1,3-dihydro-2H-isoindol-2-yl)cyclohexyl)piperidine-2-carboxamide]
inhibition at 1 µM [1]: 32%
inhibition at 1 µM [2]: 3%
inhibition at 1 µM [3]: 96%

O=C(N[C@@H]1CCCC[C@H]1N1Cc2ccc(-c3noc(C(F)(F)F)n3)cc2C1=O)C1CC(F)(F)C1 [Example 125, 3,3-difluoro-N-((1R,2R)-2-(1-oxo-6-(5-(trifluoromethyl)-1,2,4-oxadiazol-3-yl)-1,3-dihydro-2H-isoindol-2-yl)cyclohexyl) cyclobutanecarboxamide]
inhibition at 1 µM [1]: 55%
inhibition at 1 µM [2]: 11%
inhibition at 1 µM [3]: 99%

O=C(CCC(F)F)N[C@@H]1CCCC[C@H]1N1Cc2ccc(-c3noc(C(F)(F)F)n3)cc2C1=O [Example 126, 4,4-difluoro-N-((1R,2R)-2-(1-oxo-6-(5-(trifluoromethyl)-1,2,4-oxadiazol-3-yl)-1,3-dihydro-2H-isoindol-2-yl)cyclohexyl)butanamide]
inhibition at 1 µM [1]: 59%
inhibition at 1 µM [2]: 10%
inhibition at 1 µM [3]: 100%

O=C(N[C@@H]1CCCC[C@H]1N1Cc2ccc(-c3noc(C(F)(F)F)n3)cc2C1=O)C1COC1 [Example 127, N-((1R,2R)-2-(1-oxo-6-(5-(trifluoromethyl)-1,2,4-oxadiazol-3-yl)-1,3-dihydro-2H-isoindol-2-yl)cyclohexyl)oxetane-3-carboxamide]
inhibition at 1 µM [1]: 47%
inhibition at 1 µM [2]: 5%
inhibition at 1 µM [3]: 99%

O=C1CC[C@@H](C(=O)N[C@@H]2CCCC[C@H]2N2Cc3ccc(-c4noc(C(F)(F)F)n4)cc3C2=O)N1 [Example 128, 5-oxo-N-((1R,2R)-2-(1-oxo-6-(5-(trifluoromethyl)-1,2,4-oxadiazol-3-yl)-1,3-dihydro-2H-isoindol-2-yl)cyclohexyl)-L-prolinamide]
inhibition at 1 µM [1]: 39%
inhibition at 1 µM [2]: -3%
inhibition at 1 µM [3]: 92%

O=C(N[C@@H]1CCCC[C@H]1N1Cc2ccc(-c3noc(C(F)(F)F)n3)cc2C1=O)[C@H]1CCCO1 [Example 129, (2R)-N-((1R,2R)-2-(1-oxo-6-(5-(trifluoromethyl)-1,2,4-oxadiazol-3-yl)-1,3-dihydro-2H-isoindol-2-yl)cyclohexyl)tetrahydrofuran-2-carboxamide]
inhibition at 1 µM [1]: 45%
inhibition at 1 µM [2]: 9%
inhibition at 1 µM [3]: 100%

O=C1C[C@H](C(=O)N[C@@H]2CCCC[C@H]2N2Cc3ccc(-c4noc(C(F)(F)F)n4)cc3C2=O)CN1 [Example 130, (3S)-5-oxo-N-((1R,2R)-2-(1-oxo-6-(5-(trifluoromethyl)-1,2,4-oxadiazol-3-yl)-1,3-dihydro-2H-isoindol-2-yl)cyclohexyl)pyrrolidine-3-carboxamide]
inhibition at 1 µM [1]: 30%
inhibition at 1 µM [2]: 0%
inhibition at 1 µM [3]: 86%

O=C(N[C@@H]1CCCC[C@H]1N1Cc2ccc(-c3noc(C(F)(F)F)n3)cc2C1=O)C1CC1F (stereo partly drawn) [Example 132, 2-fluoro-N-((1R,2R)-2-(1-oxo-6-(5-(trifluoromethyl)-1,2,4-oxadiazol-3-yl)-1,3-dihydro-2H-isoindol-2-yl)cyclohexyl)cyclopropanecarboxamide]
inhibition at 1 µM [1]: 55%
inhibition at 1 µM [2]: 5%
inhibition at 1 µM [3]: 99%

O=C(N[C@@H]1CCCC[C@H]1N1Cc2ccc(-c3noc(C(F)(F)F)n3)cc2C1=O)C1CCCCCO1 (stereo partly drawn) [Example 133, N-((1R,2R)-2-(1-oxo-6-(5-(trifluoromethyl)-1,2,4-oxadiazol-3-yl)-1,3-dihydro-2H-isoindol-2-yl)cyclohexyl)oxepane-2-carboxamide]
HDAC9 inhibitory rate (%) (1 μM) [1]: 38%
HDAC1 inhibitory rate (%) (1 μM) ([2]; 1 µM): 9%
HDAC6 inhibitory rate (%) (1 μM) ([3]; 1 µM): 99%

O=C1c2cc(-c3noc(C(F)(F)F)n3)ccc2CN1[C@@H]1CCCC[C@H]1NC(=O)C1(c2ccccc2)COC1 [Example 134, N-((1R,2R)-2-(1-oxo-6-(5-(trifluoromethyl)-1,2,4-oxadiazol-3-yl)-1,3-dihydro-2H-isoindol-2-yl)cyclohexyl)-3-phenyloxetane-3-carboxamide]
inhibition at 1 µM [1]: 36%
inhibition at 1 µM [2]: -5%
inhibition at 1 µM [3]: 99%

CCC1(C(=O)N[C@@H]2CCCC[C@H]2N2Cc3ccc(-c4noc(C(F)(F)F)n4)cc3C2=O)COC1 [Example 138, 3-ethyl-N-((1R,2R)-2-(1-oxo-6-(5-(trifluoromethyl)-1,2,4-oxadiazol-3-yl)-1,3-dihydro-2H-isoindol-2-yl)cyclohexyl)oxetane-3-carboxamide]
inhibition at 1 µM [1]: 55%
inhibition at 1 µM [2]: 2%
inhibition at 1 µM [3]: 97%

O=C(N[C@@H]1CCCC[C@H]1N1Cc2ccc(-c3noc(C(F)(F)F)n3)cc2C1=O)N1CCOCC1 [Example 139, N-((1R,2R)-2-(1-oxo-6-(5-(trifluoromethyl)-1,2,4-oxadiazol-3-yl)-1,3-dihydro-2H-isoindol-2-yl)cyclohexyl)morpholine-4-carboxamide]
inhibition at 1 µM [1]: 25%
inhibition at 1 µM [2]: 5%
inhibition at 1 µM [3]: 98%

CC(C)(C)OC(=O)N[C@@H]1CCC[C@H]1N1Cc2ccc(-c3noc(C(F)(F)F)n3)cc2C1=O [Example 140, tert-butyl ((1R,2R)-2-(1-oxo-6-(5-(trifluoromethyl)-1,2,4-oxadiazol-3-yl)-1,3-dihydro-2H-isoindol-2-yl)cyclopentyl)carbamate]
inhibition at 1 µM [1]: 41%
inhibition at 1 µM [2]: 27%
inhibition at 1 µM [3]: 39%

CC(C)(C)OC(=O)N[C@H]1CCC[C@@H]1N1Cc2ccc(-c3noc(C(F)(F)F)n3)cc2C1=O [Example 141, tert-butyl ((1S,2S)-2-(1-oxo-6-(5-(trifluoromethyl)-1,2,4-oxadiazol-3-yl)-1,3-dihydro-2H-isoindol-2-yl)cyclopentyl)carbamate]
inhibition at 1 µM [1]: 43%
inhibition at 1 µM [2]: 28%
inhibition at 1 µM [3]: 42%
